Assays:
Bacillus subtilis = experiment: Agar diffusion test, Bacillus subtilis; type: cell-based; conditions: 0: no inhibition action
Method: (§1) DST agar was inoculated with 1 drop of a Muller-Hinton broth of the test organisms, diluted 1 : 10. After a prediffusion period of 2 hours at 22° C., the paper filters which had been soaked with solutions of active substance of various concentrations were placed on the agar. The inhibition zones (distance of the cloudy area from the edge of the paper filter in mm) were determined after an incubation time of 24 hours.

[1] = Weight loss (release) on storage, 6 days at 65° C.; type: physicochemical; conditions: 6 days 65° C.
Method: As shown by the comparison above, the amount released into the environment during a storage period of 6 days at 65° C. of, for example, TBT-HDO, is nearly six times higher than in the case of DBT-HDO according to the invention.

Coniophora puteana = experiment: Wood block test against Coniophora puteana after leaching treatment (DIN 52 176, DIN EN 84); conditions: lower: highest amount with attack (weight loss>3%); higher: lowest amount without attack; 16 weeks, 22° C.
Excerpt: To compare the fungicidal action against Basidiomycetes, small blocks made of pine sapwood (5 cm×2.5 cm×1.5 cm, direction of fiber: 5 cm) were soaked with solutions of graduated concentrations of the active substance DBT-HDO (cf. Example 1) in acetone, based on DIN 52 176.
For comparison reasons, the starting materials di-n-butyltin dichloride and the K salt of N-cyclohexyl-N'-hydroxydiazenium oxide were included in the investigations.
The soaked blocks were kept for 4 weeks in an environmentally-controlled chamber at an air temperature of 20° C. and a relative atmospheric humidity of 65%. They were then subjected to a leaching procedure in accordance with DIN EN 84. […] The effect of the fungi on the individual blocks was determined by calculating the weight losses (based on the dry weights). The limits which were determined in this way and which are expressed by two figures, the lower of which being the highest amount of protective agent (in kg/m^3 of wood) at which an attack still took place (weight loss>3%), and the higher denoting the lowest amount from which an attack no longer took place, are listed in Table 3.

Staphilococcus aureaus = experiment: Agar diffusion test, Staphilococcus aureaus; type: cell-based; conditions: 0: no inhibition action
Method: as §1

Lentinus lepideus = experiment: Filter disk test, Lentinus lepideus; type: cell-based; conditions: 3 weeks, +30° C.
Method: (§2) The inhibition action against fungi, of the products according to the invention, was tested using the "filter disk test" (cf. Table 2). For this purpose, paper filter disks (.phi. 5.5 cm) were soaked in ethanolic solutions containing various amounts of active substance. After the filters had dried under room conditions, they were placed on Petri dishes containing plate-count agar which had been inoculated with a spore suspension. The nutrient medium used was biomalt agar 8° Bg, and the dishes were incubated for 3 weeks at +30° C. Thereafter, the sizes of the inhibition zones (distance of the fungal growth from the edge of the filter, in mm) around the samples were determined.

Proteus vulgaris = experiment: Agar diffusion test, Proteus vulgaris; type: cell-based; conditions: 0: no inhibition action
Method: as §1

Paecilomyces varioti = experiment: Filter disk test, Paecilomyces varioti; type: cell-based; conditions: 3 weeks, +30° C.
Method: as §2

Poria monticola = experiment: Filter disk test, Poria monticola; type: cell-based; conditions: 3 weeks, +30° C.
Method: as §2

Cladosporum herbarum = experiment: Filter disk test, Cladosporum herbarum; type: cell-based; conditions: 3 weeks, +30° C.
Method: as §2

Daphnia = experiment: EC50 in Daphnia (DIN 38412, Part 12); type: in vivo
Excerpt: **Determination in accordance with DIN 38412, Part 12.

Orfes = experiment: EC50 in Orfes (DIN 38412, Part 15); type: in vivo
Excerpt: *Determination in accordance with DIN 38412, Part 15

Escherichia coli = experiment: Agar diffusion test, Escherichia coli; type: cell-based; conditions: 0: no inhibition action
Method: as §1

[2] = 0.1% active substance in soaking solution
[3] = 0.3% active substance in soaking solution
[4] = 0.5% active substance in soaking solution

SMILES | inhibition zone (IZ) (Lentinus lepideus; 0.5% content of the solution) [mm] | inhibition zone (IZ) (Lentinus lepideus; 1% content of the solution) [mm] | inhibition zone (IZ) (Lentinus lepideus; 2% content of the solution) [mm] | inhibition zone (IZ) (Paecilomyces varioti; 0.5% content of the solution) | inhibition zone (IZ) (Paecilomyces varioti; 1% content of the solution) | inhibition zone (IZ) (Paecilomyces varioti; 2% content of the solution) | inhibition zone (IZ) (Poria monticola; 0.5% content of the solution) | inhibition zone (IZ) (Poria monticola; 1% content of the solution) | inhibition zone (IZ) (Poria monticola; 2% content of the solution) | inhibition zone (IZ) (Cladosporum herbarum; 0.5% content of the solution) | inhibition zone (IZ) (Cladosporum herbarum; 1% content of the solution) | inhibition zone (IZ) (Cladosporum herbarum; 2% content of the solution) | also measured
CCC[CH2][Sn]([CH2]CCC)([O]N(N=O)C1CCCCC1)[O]N(N=O)C1CCCCC1 [DBT-HDO, bis(N-cyclohexyldiazeniumdioxy)di-n-butyltin] | > 15 | > 15 | > 15 | 6-8 mm | 8-10 mm | 10-12 mm | 6-8 mm | 12-12 mm | 12-15 mm | 3-5 mm | 5-6 mm | 8-10 mm | inhibition zone (Bacillus subtilis; [2]): 6 mm; inhibition zone (Bacillus subtilis; [3]): 11 mm; inhibition zone (Bacillus subtilis; [4]): 15 mm; Weight loss [1]: 2.3%; Limits against Coniophora puteana after leaching treatment (Coniophora puteana): 0.51-0.88 kg of product per m^3 of wood; inhibition zone (Staphilococcus aureaus; [2]): 8 mm; inhibition zone (Staphilococcus aureaus; [3]): 10 mm; inhibition zone (Staphilococcus aureaus; [4]): 10 mm; inhibition zone (Proteus vulgaris; [2]): 12 mm; inhibition zone (Proteus vulgaris; [3]): 13 mm; inhibition zone (Proteus vulgaris; [4]): 12 mm; EC50 in Daphnia (Daphnia): 4.9 mg/l of water; EC50 in Orfes (Orfes): 0.18 mg/l of water; inhibition zone (Escherichia coli; [2]): 0 mm; inhibition zone (Escherichia coli; [3]): 2 mm; inhibition zone (Escherichia coli; [4]): 3 mm
CCCCCCC[CH2][Sn]([CH2]CCCCCCC)([O]N(N=O)C1CCCCC1)[O]N(N=O)C1CCCCC1 [DOT-HDO, bis(N-cyclohexyldiazeniumdioxy)di-n-octyltin] | > 15 | > 15 | > 15 | 5-6 mm | 8-10 mm | 10-12 mm | 5-6 mm | 8-10 mm | 8-10 mm | 10-12 mm | 12-15 mm | > 15 mm | 
CCCC[CH2][Sn]([CH2]CCCC)([O]N(N=O)C1CCCCC1)[O]N(N=O)C1CCCCC1 [DPT-HDO, bis(N-cyclohexyldiazeniumdioxy)di-n-pentyltin] | > 15 | > 15 | > 15 | 6-8 mm | 8-10 mm | 10-12 mm | 6-8 mm | 8-10 mm | 10-12 mm | 2-3 mm | 5-7 mm | 6-8 mm | 

— patent publication US5149365A, “Diorganotin compounds, and agents which have a bactericidal and fungicidal action and contain these compounds” (Schering Aktiengesellschaft, priority 1988, dated 1992)
